{"source": "patent US20140045895A1", "about": "“PHARMACEUTICAL DEPOT FOR 5-FLUORO-2-[[(1S)-1-(5-FLUORO-2-PYRIDYL)ETHYL]AMINO]-6-[(5-ISOPROPOXY-1H-PYRAZOL-3-YL)AMINO]PYRIDINE-3-CARBONITRILE” (ASTRAZENECA AB, priority 2010, published 2014)", "key": {"[1]": {"experiment": "Plasma levels after intra-articular injection of 50/50 PLGA formulation", "format": "in vivo, rats", "conditions": "200 μg dose in 50/50 PLGA IA formulation into knees, rat plasma", "procedure": "Animals were anaesthetised with isofluorane and 30 μl PLGA microspheres containing 200 μg injected into each knee using a Hamilton syringe and 25G needle. The vial of microspheres was vortexed before injection of each animal to try and obtain a homogeneous injection solution. Animals were recovered and returned to their home cages until plasma sampling.\nAnimals were warmed in a hot box for 10 minutes at 42° C. before being placed in a restrainer and 200 μl blood sampled from the lateral tail vein into a Sarsted Multivette 600 Lithium Heparin tube (cat no 15.1673) attached to a 21G needle. Tubes were placed on a roller until centrifugation at 13000 rpm for 5 minutes to sediment red blood cells. Plasma was decanted and stored at −20° C. until analysis by DMPK. Samples were taken 1 h, 3 h, 6 h, 24 h, 48 h, 96 h and 168 h post-injection.\nThe levels shown are for a 200 μg dose of compound."}, "[2]": {"experiment": "Hydrolytic stability of PA in the acidic microclimate created by polymer degradation", "format": "physicochemical"}}}
{"smiles": "CC(C)Oc1cc(Nc2nc(N[C@@H](C)c3ccc(F)cn3)c(C#N)cc2F)n[nH]1", "note": "[PA, 5-fluoro-2-[[(1S)-1-(5-fluoro-2-pyridyl)ethyl]amino]-6-[(5-isopropoxy-1H-pyrazol-3-yl)amino]pyridine-3-carbonitrile]", "values": [{"measurement": "period over which release of compound was seen (plasma)", "setting": "[1]", "result": 168, "unit": "h"}, {"measurement": "hydrolytic stability in acidic microclimate", "setting": "[2]", "result": "hydrolytically stable"}]}
